According to PubChem BioAssay AID179 (DTP/NCI, 2004):
Activity calls are given as the source filed them.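 The calls were made as follows: active = compounds giving half or more protection of infected cells from virus-caused growth loss, again on retest; inactive = the rest.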 Where a SMILES comes first, the peptide text is derived from it.

Test system: CEM cells HIV-1 protection, formazan growth assay
Assay: NCI AIDS Antiviral Assay
Settings: for IC50: measured here: growth of uninfected CEM cells
Outline: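 Human CEM cells, uninfected and HIV-1-infected, exposed to five drug concentrations; growth measured by soluble formazan assay and scored as percent protection from infection, with protecting compounds retested.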

Row | Structure (SMILES) | EC50 [µM] | IC50 [µM] | outcome
1 | C/C(O)=C/c1nc2ccccc2n2nnnc12 | > 110 | > 110 | 
2 | N#CCCN(CCC#N)c1ccc(C(=O)NN)cc1 | > 363 | 288 | 
3 | CC(C)Oc1c(-c2ccc(F)cc2)c(O)c2c3c1oc(=O)n3C=CC2C (stereo not given) | 13.2 | 14.8 | 
4 | CCC(C)C(NC(=O)C(CCC(N)=O)NC(=O)C(CCCCN)NC(=O)C(CO)NC(=O)C(CC(C)C)NC(=O)C(Cc1ccc(O)cc1)NC(=O)C(C)N)C(=O)NC(C)C(=O)NC(CO)C(=O)NC(CC(N)=O)C(=O)O (stereo not given) (H-AYLSKQIASN-OH; configuration not given here) | > 57.5 | > 57.5 | 
5 | Cc1cc(C(=O)O)c(C)cc1SSc1cc(C)c(C(=O)O)cc1C | > 105 | 75.9 | 
6 | COc1ccc2c(c1)CCN=C2c1ccccc1CCCCl | > 200 | 2.34 | 
7 | O=CN(SSN(C=O)C1CCCCC1)C1CCCCC1 |  |  | inactive
8 | O=C(O)Cc1cccc2c(=O)c(-c3ccccc3)coc12 | > 200 | > 200 | 
9 | O=c1ccc2ccc(S)cc2o1 | > 200 | 32.4 | 
10 | O=C1NS(=O)(=O)c2ccccc21.[Cu+2] | > 1150 | 58.9 | 
11 | O=C(Nc1ccc(/C=C\c2ccc(NC(=O)c3cc(S(=O)(=O)O)c4cccnc4c3O)cc2S(=O)(=O)O)c(S(=O)(=O)O)c1)c1cc(S(=O)(=O)O)c2cccnc2c1O | > 100 | > 100 | 
12 | C/C=C1/CN2CCC34C5=CC(=O)C(c6cc7c(cc6OC)N(C)C6=C(C(=O)OC)CC8(CC)CCCN9CCC67C98)=CC5=NC23CCC1C4C(=O)OC (stereo not given) | > 200 | 4.9 | 
13 | O=C1OC2(CCCCC2)c2ccccc21 | > 339 | 186 | 
14 | O=C1CCCN1C(=O)CS(=O)(=O)c1ccccc1 | > 200 | > 200 | 
15 | O=C(c1cc2c(C(F)(F)F)onc2c2ccccc12)C(F)(F)F | > 107 | 8.32 | 
16 | CCc1ccccc1C(C(=O)NC1CN2CCC1CC2)c1ccsc1 (stereo not given) | > 200 | 61.7 | 
17 | C=CCc1c(O)c2ccccc2[nH]c1=O | > 200 | > 200 | 
18 | CCc1cccc(CC)c1NC(=S)N/C=C(\C#N)S(=O)(=O)c1ccc(C)cc1 | > 200 | > 200 | 
19 | COc1cc(C)c(Cc2cnc(N)nc2N)cc1OC | > 200 | > 200 | 
20 | S=c1[nH]nc2n1NC(c1ccccc1)=NN2 | > 295 | > 295 | 
21 | CC(SC(C)C(=O)N/N=C/c1ccc(B(O)O)cc1)C(=O)N/N=C\c1ccc(B(O)O)cc1 (stereo not given) | > 200 | > 200 | 
22 | CCCC(/C=N/N=C(N)N)=N\N=C(N)N | > 83.2 | > 83.2 | 

Row | Structure (SMILES) | EC50 [µM] | IC50 [µM] | outcome
23 | O=C(c1ccco1)n1c2ccc(Br)cc2c2nc3ccccc3nc21 | > 50.1 | 22.4 | 
24 | O=C(Oc1ccc(Cl)cc1[N+](=O)[O-])c1ccccc1 |  |  | inactive
25 | Clc1ccc(Cl)c(SSc2cc(Cl)ccc2Cl)c1 |  |  | inactive
26 | CC1(C)CN(C(=O)OCc2ccccc2)[C@@H]2N1C(=O)[C@@]2(C)OCCCO[C@]1(C)C(=O)N2[C@H]1N(C(=O)OCc1ccccc1)CC2(C)C | > 200 | > 200 | 
27 | COc1ccc(-c2cc(=O)c3c(OC)c(OC)c(OC)c(OC)c3o2)cc1OC | > 200 | 33.9 | 
28 | Cc1cc(C)c(NC(=O)c2cnccn2)c(=O)o1 | > 200 | > 200 | 
29 | Cc1ccc(C(=O)Nc2ccc(CP(=O)(O)O)cc2)cc1NC(=O)c1cccc(N)c1 | > 200 | > 200 | 
30 | C/C=C1\CN2CCC34c5ccccc5N5C(=O)CCC(C1CC23)C54 (stereo not given) | > 42.7 | > 42.7 | 
31 | COc1cc2c(cc1OC)C1Cc3ccccc3CN1CCC2 (stereo not given) | > 200 | 141 | 
32 | COc1ccc2c(c1)OC(C)(C)C1c3cc(O)c(OCc4ccccc4)cc3OC21 (stereo not given) | > 200 | 16.6 | 
33 | Cc1ccccc1C(C#N)/C(=N/NC(=O)C(=O)NN)C(=O)Nc1cccc(C(F)(F)F)c1 (stereo not given) | > 209 | > 209 | 
34 | NC(N)=Nc1ccccc1SSc1ccccc1N=C(N)N | 8.13 | 52.5 | 
35 | Cc1cc(Cl)ccc1NC(=O)/C(Cl)=C(/Cl)C(=O)O |  |  | inactive
36 | CS(=O)(=O)Sc1ccc(Cl)cc1 | > 132 | 9.33 | 
37 | CCOC(=O)c1cccn1S(=O)(=O)c1cc(Cl)ccc1NC(=O)CC | 6.17 | 195 | 
38 | C[N+](C)(C)CCCCCCCCCC[N+](C)(C)C | > 603 | > 603 | 
39 | O=S(=O)(NCCSSCCNS(=O)(=O)c1ccc(Cl)cc1)c1ccc(Cl)cc1 | > 200 | 17.8 | 
40 | c1nncn1C12C3C4C5C3C1C5C42 (stereo not given) | > 200 | > 200 | 
41 | CC1CC(C)c2c(O)c3c(c(O)c2N1)C(=O)c1ccccc1C3=O (stereo not given) | > 16.2 | 8.71 | 
42 | NC(=O)C(=CN1C(=O)/C(=C/c2ccc([N+](=O)[O-])cc2)SC1=S)C(N)=O | > 200 | 30.2 | 
43 | CC(C)CCC[C@@H](C)C1CCC2[C@@H]3CC=C4C[C@@H](OP(=O)([O-])OCC[N+](C)(C)C)CC[C@]4(C)C3CC[C@@]21C (stereo not given in full) | > 39.8 | 20.4 | 
44 | CC[C@@H]1CC2CC3c4[nH]c5ccccc5c4CCN(C2)C31 (stereo not given in full) |  |  | inactive

Row | Structure (SMILES) | EC50 [µM] | IC50 [µM] | outcome
45 | c1ccc(SSc2ccccc2)cc1 | > 200 | 5.62 | 
46 | Cc1cc2c(C)nn(Cc3ccc(Cl)cc3Cl)c2c(C#N)c1C | > 20.9 | > 20.9 | 
47 | CC12CCCCC1(C)C2Sc1ccccc1 (stereo not given) |  |  | inactive
48 | Cn1c(=O)cc(C=Nc2ccc(O)cc2)c2ccccc21 | > 200 | 1.74 | 
49 | CN1CC2=C(OC(N)=C(C#N)C2c2cccs2)/C(=C/c2cccs2)C1 (stereo not given) | > 200 | 8.13 | 
50 | C[N+](C)(C)C1CC([N+](C)(C)C)C2c3ccccc3C21 (stereo not given) |  |  | inactive
51 | C/C(Sc1ccccc1)=C1/CCCN(Cc2ccccc2)C1 | > 200 | 74.1 | 
52 | COc1cccc(/C(C=O)=C(\Cl)c2ccc(OC)c(OC)c2)c1 | > 21.9 | 11.5 | 
53 | O=C(OCCN1CCCCCC1)C(c1ccsc1)C1CCCCC1 (stereo not given) | > 200 | 35.5 | 
54 | O=C(OCCN1CCCCC1)c1cc2ccccc2n1Cc1ccccc1 | > 200 | 30.2 | 
55 | CC1(C)OC(=O)C(C)(C)OC1=O | > 200 | > 200 | 
56 | CC(=O)N(/N=C\c1ccc([N+](=O)[O-])cc1)c1ccccc1 | > 126 | > 126 | 
57 | CNc1nc(SC)nc2c1c(N)nn2C | > 200 | > 200 | 
58 | CSc1nc2c(=O)oc(-c3ccccc3)nc2s1 | > 200 | 6.03 | 
59 | NC1CC(n2ccc(=O)[nH]c2=O)OC1C(O)CO (stereo not given) | > 100 | > 100 | 
60 | O=C1CCn2c([nH]c3cccc4cccc2c43)=N1 | > 151 | 148 | 
61 | CC(C)c1oc(=O)cc2c1C(O)C1OC(=O)C3(C)C(O)C4OC4C2(C)C13 (stereo not given) | > 36.3 | 0.17 | 
62 | COc1cncn2nc(C)nc12 | > 75.9 | > 75.9 | 
63 | C=C(C)[C@@H](C(=O)OC)N1C(=O)c2ccccc2C1=O | > 200 | > 200 | 
64 | CC(=O)OC1CC2C(=O)C(=O)C1(C)C2(C)C (stereo not given) | > 200 | > 200 | 
65 | O=C1N=C2SCCCN2C1(c1ccccc1)c1ccccc1 | > 200 | > 200 | 
66 | COc1ccc(CNc2nc3cc(C(F)(F)F)ccc3nc2C)cc1OC | > 19.1 | 14.5 | 
